Source: US12344610B2, “APOL1 inhibitors and methods of use” (Maze Therapeutics, Inc., priority 2022, dated 2025)
pEC50: −log10 of the molar value.

What was measured:
[1] = tested on: HEK293 cells overexpressing APOL1 G2; assay: APOL1 G2 HEK293 cell rescue assay (reversal of cell death caused by overexpression of APOL1); type: cell-based; conditions: Homo sapiens, HEK293, HEK293 overexpressing APOL1 G2; geometric mean of at least 2 assay runs; † = single assay run
Procedure, shortened: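 Each compound tested in duplicate wells on one plate per run, with values usually the geometric mean across at least two runs on different days, occasionally from one run only. Read-out: concentration giving half-maximal rescue of APOL1 G2 overexpression-induced death of HEK293 cells.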

APOL1 G2 = target: T1, APOL1 G2 (Homo sapiens, UniProt O14791, DEL388-389); assay: APOL1-mediated calcium transport (calcium influx) assay, HEK T-REx/GCaMP6f/APOL1 G2 K6.3 cells, FLIPR TETRA; type: cell-based; conditions: prevention of calcium influx; geometric mean of at least 2 assay runs; † = average of a technical replicate from a single assay run
T1 construct: expressed in transfected cells; host or cells: HEK293 T-REx clonal line stably expressing GCaMP6f (HEK T-REx/GCaMP6f/APOL1 G2 K6.3), doxycycline induced
T1 sequence (O14791 with tags, fused parts or gaps DEL388-389): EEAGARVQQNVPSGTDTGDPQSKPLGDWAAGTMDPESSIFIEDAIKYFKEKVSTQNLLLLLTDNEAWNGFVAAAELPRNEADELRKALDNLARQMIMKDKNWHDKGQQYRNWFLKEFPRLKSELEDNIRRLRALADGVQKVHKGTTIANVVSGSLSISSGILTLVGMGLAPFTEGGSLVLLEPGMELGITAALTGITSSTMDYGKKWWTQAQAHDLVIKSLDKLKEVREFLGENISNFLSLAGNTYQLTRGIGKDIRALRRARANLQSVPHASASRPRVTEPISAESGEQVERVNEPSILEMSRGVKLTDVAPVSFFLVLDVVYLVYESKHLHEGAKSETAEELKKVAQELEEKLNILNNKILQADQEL
Procedure, shortened: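 A HEK293 T-REx clone stably expressing GCaMP6f had APOL1 G2 induced with doxycycline (20 ng/mL solution added) for 6 h. Cells were then washed into Ca2+-free Tyrode's buffer (pH 7.4) and preincubated with compounds (duplicate 8-point) for 10 min at room temperature. Ca2+ injection to 5 mM final produced FLIPR GCaMP fluorescence, giving AC50 for influx inhibition (geometric mean, ≥2 runs).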

| Structure (SMILES) | pEC50 [1] | AC50 (APOL1 G2) |
| --- | --- | --- |
| CC(C)N1C(=O)Cc2cc(OCCN3CCC4(CC3)C(=O)Nc3ccc(C#N)cc34)ccc21 [Compound 144, 2-oxo-1′-(2-{[2-oxo-1-(propan-2-yl)-2,3-dihydro-1H-indol-5-yl]oxy}ethyl)-1,2-dihydrospiro[indole-3,4′-piperidine]-5-carbonitrile] | 7.09 | 708 nM |
| CC(C)N1C(=O)Cc2cc(OCCN3CCC4(CC3)C(=O)Nc3ccc(Cl)cc34)ccc21 [Compound 145, 5-chloro-1′-(2-{[2-oxo-1-(propan-2-yl)-2,3-dihydro-1H-indol-5-yl]oxy}ethyl)-1,2-dihydrospiro[indole-3,4′-piperidin]-2-one] | 7.30 | 465 nM |
| CN1Cc2cc(OCCN3CCC4(CC3)C(=O)Nc3ccc(Cl)cc34)ccc2C1=O [Compound 146, 5-chloro-1′-{2-[(2-methyl-1-oxo-2,3-dihydro-1H-isoindol-5-yl)oxy]ethyl}-1,2-dihydrospiro[indole-3,4′-piperidin]-2-one] | 6.92 | 279 nM |
| CN=S(C)(=O)c1ccc(OCCN2CCC3(CC2)C(=O)Nc2ccc(Cl)cc23)cc1 (centres unmarked) [Compound 147, 5-chloro-1′-(2-{4-[methyl(methylimino)oxo-λ^6-sulfanyl]phenoxy}ethyl)-1,2-dihydrospiro[indole-3,4′-piperidin]-2-one] | 7.20 | 492 nM |
| CN=S(C)(=O)c1ccc(OCCN2CCC3(CC2)C(=O)Nc2ccc(C#N)cc23)cc1 (centres unmarked) [Compound 150, 1′-(2-{4-[methyl(methylimino)oxo-λ^6-sulfanyl]phenoxy}ethyl)-2-oxo-1,2-dihydrospiro[indole-3,4′-piperidine]-5-carbonitrile] | 6.64 | 629 nM |
| CN1CCc2cc(OCCN3CCC4(CC3)C(=O)Nc3ccc(Cl)cc34)ccc2S1(=O)=O [Compound 153, 6-(2-{5-chloro-2-oxo-1,2-dihydrospiro[indole-3,4′-piperidin]-1′-yl}ethoxy)-2-methyl-3,4-dihydro-2H-1λ^6,2-benzothiazine-1,1-dione] | 7.66 | 826 nM |
| CN1CCc2cc(OCCN3CCC4(CC3)C(=O)Nc3ccc(C#N)cc34)ccc2S1(=O)=O [Compound 154, 1′-{2-[(2-methyl-1,1-dioxo-3,4-dihydro-2H-1λ^6,2-benzothiazin-6-yl)oxy]ethyl}-2-oxo-1,2-dihydrospiro[indole-3,4′-piperidine]-5-carbonitrile] | 7.17 | 869 nM |
| CS(=O)(=O)c1ccc(OCCN2CCC3(CC2)C(=O)Nc2ccc(Cl)cc23)cc1Cl [Compound 155, 5-chloro-1′-[2-(3-chloro-4-methanesulfonylphenoxy)ethyl]-1,2-dihydrospiro[indole-3,4′-piperidin]-2-one] | 7.58 | 452 nM |
| CS(=O)(=O)c1ccc(OCCN2CCC3(CC2)C(=O)Nc2ccc(C#N)cc23)cc1Cl [Compound 156, 1′-[2-(3-chloro-4-methanesulfonylphenoxy)ethyl]-2-oxo-1,2-dihydrospiro[indole-3,4′-piperidine]-5-carbonitrile] | 7.25 | 468 nM |
| CC(C)(C#N)c1ccc(OCCN2CCC3(CC2)C(=O)Nc2ccc(C#N)cc23)cc1 [Compound 157, 1′-{2-[4-(1-cyano-1-methylethyl)phenoxy]ethyl}-2-oxo-1,2-dihydrospiro[indole-3,4′-piperidine]-5-carbonitrile] | 7.30 | 933 nM |
| CC1(S(=O)(=O)c2ccc(OCCN3CCC4(CC3)C(=O)Nc3ccc(Cl)cc34)cn2)COC1 [Compound 158, 5-chloro-1′-[2-({6-[(3-methyloxetan-3-yl)sulfonyl]pyridin-3-yl}oxy)ethyl]-1,2-dihydrospiro[indole-3,4′-piperidin]-2-one] | 7.18 | 845 nM |
| CS(=O)(=O)C1(c2ccc(OCCN3CCC4(CC3)C(=O)N(CCO)c3ccc(Cl)cc34)cc2)COC1 [Compound 160, 5-chloro-1-(2-hydroxyethyl)-1′-{2-[4-(3-methanesulfonyloxetan-3-yl)phenoxy]ethyl}-1,2-dihydrospiro[indole-3,4′-piperidin]-2-one] | 7.12 | 898 nM |
| Cc1cc(OCCN2CCC3(CC2)C(=O)Nc2ccc(Cl)cc23)cnc1S(C)(=O)=O [Compound 161, 5-chloro-1′-{2-[(6-methanesulfonyl-5-methylpyridin-3-yl)oxy]ethyl}-1,2-dihydrospiro[indole-3,4′-piperidin]-2-one] | 7.33 | 539 nM |
| O=C1CCc2cc(OCCN3CCC4(CC3)C(=O)Nc3ccc(Cl)cc34)ccc2N1CCO [Compound 162, 5-chloro-1′-(2-{[1-(2-hydroxyethyl)-2-oxo-1,2,3,4-tetrahydroquinolin-6-yl]oxy}ethyl)-1,2-dihydrospiro[indole-3,4′-piperidin]-2-one] | 7.24 | 603 nM |
| CS(=O)(=O)c1ccc(OCCN2CCC3(CC2)C(=O)Nc2ccc(Cl)cc23)cc1OC(F)F [Compound 163, 5-chloro-1′-{2-[3-(difluoromethoxy)-4-methanesulfonylphenoxy]ethyl}-1,2-dihydrospiro[indole-3,4′-piperidin]-2-one] | 7.61 | 528 nM |
| CS(=O)(=O)c1ccc(OCCN2CCC3(CC2)C(=O)Nc2ccc(C#N)cc23)cc1OC(F)F [Compound 164, 1′-{2-[3-(difluoromethoxy)-4-methanesulfonylphenoxy]ethyl}-2-oxo-1,2-dihydrospiro[indole-3,4′-piperidine]-5-carbonitrile] | 6.99 | 555 nM |
| CS(=O)(=O)C1(c2ccc(OCCN3CCC4(CC3)C(=O)Nc3ccc(Cl)cc34)cc2C(F)(F)F)COC1 [Compound 165, 5-chloro-1′-{2-[4-(3-methanesulfonyloxetan-3-yl)-3-(trifluoromethyl)phenoxy]ethyl}-1,2-dihydrospiro[indole-3,4′-piperidin]-2-one] | 7.67 | 558 nM |
| CS(=O)(=O)C1(c2ccc(OCCN3CCC4(CC3)C(=O)Nc3ccc(C#N)cc34)cc2C(F)(F)F)COC1 [Compound 166, 1′-{2-[4-(3-methanesulfonyloxetan-3-yl)-3-(trifluoromethyl)phenoxy]ethyl}-2-oxo-1,2-dihydrospiro[indole-3,4′-piperidine]-5-carbonitrile] | 7.25 | 618 nM |
| O=C1Nc2ccc(Cl)cc2C12CCN(CCOc1ccc3c(c1)CCNS3(=O)=O)CC2 [Compound 167, 6-(2-{5-chloro-2-oxo-1,2-dihydrospiro[indole-3,4′-piperidin]-1′-yl}ethoxy)-3,4-dihydro-2H-1λ^6,2-benzothiazine-1,1-dione] | 7.37 | 467 nM |
| N#Cc1ccc2c(c1)C1(CCN(CCOc3ccc4c(c3)CCNS4(=O)=O)CC1)C(=O)N2 [Compound 168, 1′-{2-[(1,1-dioxo-3,4-dihydro-2H-1λ^6,2-benzothiazin-6-yl)oxy]ethyl}-2-oxo-1,2-dihydrospiro[indole-3,4′-piperidine]-5-carbonitrile] | 6.46 | 1390 nM |
| CN1C(=O)Cc2cc(OCCN3CCC4(CC3)C(=O)Nc3ccc(C#N)cc34)cc(F)c21 [Compound 169, 1′-{2-[(7-fluoro-1-methyl-2-oxo-2,3-dihydro-1H-indol-5-yl)oxy]ethyl}-2-oxo-1,2-dihydrospiro[indole-3,4′-piperidine]-5-carbonitrile] | 6.61 | 1210 nM |
| CC1(Oc2ncc(OCCN3CCC4(CC3)C(=O)Nc3ccc(Cl)cc34)cn2)COC1 [Compound 172, 5-chloro-1′-[2-({2-[(3-methyloxetan-3-yl)oxy]pyrimidin-5-yl}oxy)ethyl]-1,2-dihydrospiro[indole-3,4′-piperidin]-2-one] | 7.00 | 479 nM |
| CCS(=O)(=O)C1(c2ccc(OCCN3CCC4(CC3)C(=O)Nc3ccc(C#N)cc34)cc2)COC1 [Compound 174, 1′-(2-{4-[3-(ethanesulfonyl)oxetan-3-yl]phenoxy}ethyl)-2-oxo-1,2-dihydrospiro[indole-3,4′-piperidine]-5-carbonitrile] | 6.98 | 484 nM |
| CS(=O)(=O)C1(c2ccc(OCCN3CCC4(CC3)C(=O)Nc3ccc(Cl)cc34)cc2)CCC1 [Compound 180, 5-chloro-1′-{2-[4-(1-methanesulfonylcyclobutyl)phenoxy]ethyl}-1,2-dihydrospiro[indole-3,4′-piperidin]-2-one] | 7.66 | 756 nM |
| CS(=O)(=O)C1(c2ccc(OCCN3CCC4(CC3)C(=O)Nc3ccc(C#N)cc34)cc2)CCC1 [Compound 181, 1′-{2-[4-(1-methanesulfonylcyclobutyl)phenoxy]ethyl}-2-oxo-1,2-dihydrospiro[indole-3,4′-piperidine]-5-carbonitrile] | 7.35 | 656 nM |
